Measured values published in article PMC11012829 (International Journal of Nanomedicine, 2024).

Key:
[1] = format: in vivo, male Sprague-Dawley rats; settings: oral, rats; for bioavailability after N-XBSD administration compared to the free drugs: same administration concentration
P-gp = settings: cited from earlier work

Structure (SMILES): O=C1C[C@@H](c2ccc(O[C@@H]3O[C@H](CO)[C@@H](O)[C@H](O)[C@H]3O)cc2)Oc2cc(O)ccc21 [Liquiritin, liquiritin]
- mean AUC0-t in the N-XBSD group versus free drugs group ([1]; p<0.05): significantly higher
- bioavailability after N-XBSD administration compared to the free drugs [1]: significantly higher
- P-gp substrate (P-gp): substrates of P-gp

Structure (SMILES): OC[C@H]1O[C@@H](Oc2cc(O)cc(/C=C/c3ccc(O[C@@H]4O[C@H](CO)[C@@H](O)[C@H](O)[C@H]4O)cc3O)c2)[C@H](O)[C@@H](O)[C@@H]1O [Mulberroside A, mulberroside A]
- mean AUC0-t increased in the N-XBSD group compared to the free drugs ([1]; N-XBSD vs free drugs): 122.73%
- bioavailability after N-XBSD administration compared to the free drugs [1]: significantly higher
- P-gp substrate (P-gp): substrates of P-gp
